In patent publication US7524943B2, “Method for the production of plant seed with modified fiber content and modified seed coat” (National Research Council of Canada, priority 2001, dated 2009):

B1: CJAS1 cDNA: copper chloride-induced cDNA from B. carinata, expressed in antisense orientation from a double 35S promoter (nucleic acid, listed as Brassica carinata)
DNA: ATTGCACCTCTCTCTTTATTCTCTCTCTGCTAATCAACCACTCTCTCTATTTACGTTAGCCGGTAAAAAAATGGTTGAGCAGAAAAAGTTCGCTCTGTTTCTAGCGACTCCTGATTCAGAGTTCGTGAAGAAAGAGTACGGAGGATACCACAACGTGTTCGTGTCCACGTTCGGTGACGAAGGAGAGCATTGGGACTCGTTTAGAGTCGTTGAAGGCGAGTTTCCCGACGAGAAAGATCTTGACAAGTACGACGGTTTCGTTATTAGTGGAAGCTCTCACGATTCCTTCGAGAATGATCCTTGGATCCTTAGGCTATGTGAGATCGTCAAGATACTCGATGAGAAGAAGAAGAAAATTCTTGGCATATGCTTTGGTCACCAGATCATAGCCAGAGTAAGAGGAGGAACAGTGGGAAGAGCAAGGAAGGGACCAGAACTTAAGCTTACAGACATAACCATCGTGAAGGATGCGATTAAACCAGGAAGTTTCTTCGGAAACGAGATTCCGGATAGCATAGCCATCCTAAAGTTACATCAGGACGAAGTGTTAGTGTTGCCTGAATCTGCTAAAGTACTAGCTTATTCAGAAAAGTACGAGGTGGAGATGTTCTCCATTGAGGATCATTTATTCTGTATTCAAGGACATCCCGAGTATAACAGAGAGATTCTCCACGAGATCGTTGATCGTGTTCTTCGTCTTGGCTTCATCAAGGAAGATTTTGCGGATGCGGCAAAAGCCTCGATGGAGAATAGGGGAGCAGACAGGAAACTTTTGGAGACGATTTGCAAGAATTTTCTCAAAGGCAGAGTTCCAGCTAATTAATTAGTTTCACTCCCAAATTATCTATTTGGCTCTTGTTATATTGGAGCTAGCACTTATGGATTTATTATCTTGCTGTATTGTATTCAATATATAACCTATTAATCTCATCCTTGTCAAGGAAACAAAAACTCATATTAATCTCAATGTCATATTTATGTGTTGTTACCCATAAGTAAAATTATTCAATAAAAACTATAGTTTTGCAAAAAAAAAAAAAAAAA

Legend:
[1] = test system: CJAS1 gene; experiment: CJAS1 gene expression by Northern blot after treatments; type: in vivo, B. carinata; details: treatment of wild-type Brassica plants; data not shown
Excerpt: CJAS1 gene expression was studied via Northern blot of various plant tissues taken from wild-type Brassica plants (data not shown). […] The amount of transcript in flower bud and silique was slightly greater than in the other tissues. […] The rapid response to Cu and MeJA implies a control mechanism sensitive to membrane damage. The activation of CJAS1 transcription by the four different compounds is unusual but not without precedent.

[2] = test system: CJAS1; experiment: Inhibitor effects on induction/expression of CJAS1; type: in vivo, B. carinata; details: data not shown; for CJAS1 transcript accumulation: non-induced material
Protocol: The effects of the nitric oxide (NO) scavenger 2-phenyl-4,4,5,5-tetramethylimidazolinone-3-oxide-1-oxyl (PTIO), the protein phosphatase type 1 and 2A inhibitor okadaic acid (OKA), the serine/threonine protein kinases inhibitor staurosporine (STAU) and the protein translation inhibitor cycloheximide (CHX) were determined on induction/expression of CJAS1 in B. carinata.

[3] = test system: Escherichia coli GMP synthetase mutant ght1; experiment: Complementation of Escherichia coli GMP synthetase mutant ght1; type: cell-based; details: cDNA in expression vector
Excerpt: Thus, it is postulated that the protein encodes an amidotransferase activity distinct from GMP synthase that utilizes an aromatic compound for a substrate. This is analogous to a similar step seen for the phenylpropanoid pathway, another pathway that is involved in the formation of fiber (and the seed coat) and is a pathway that utilizes aromatic compounds. In the phenylpropanoid pathway, L-phenyalanine, an aromatic amino acid, is a substrate for the enzyme phenyalanine ammonia lyase (PAL). The enzymatic activity of PAL leads to the formation of cinnamic acid by deamination which eventually leads to the formation of lignin monomers. In the present case, CJAS1 may be a subunit of an enzyme that encodes a […] activity utilized within another secondary metabolite pathway and reduction of the enzyme activity (as evidenced by antisense RNA inhibition of the gene expression) can lead to alteration in the formation of phenolic-related compounds. This alteration may further affect the formation of other compounds in the seed, in particular, compounds that are known to be related to fiber formation.

[4] = test system: B. carinata; experiment: Visual characterization of seed coat color of transformed B. carinata; type: in vivo
Excerpt: The plant transformation vectors carrying the antisense genes made with the defense-related cDNAs were used for plant transformation. The plant species used for transformation was a selection of B. carinata, the same selection that was originally treated with Copper chloride. This selection of B. carinata has dark-colored, thick seed coats. For transformation, Agrobacterium tumifaciens strain GV3101/pMP90 (C. Koncz and J. Schell, 1986, Mol. Gen. Genet. 204:383-396) was used. The transformation vectors were introduced into the Agrobacterium strain using standard techniques. Plant explants were co-cultured for three days then transferred to selective media. Plants were selected on kanamycin.
Transformed B. carinata were analyzed by visual characterization. […] A sample comparison of seeds obtained from wild-type B. carinata and transgenic B. carinata expressing antisense CJAS1 (SEQ ID NO:1) is shown in FIG. 2a and FIG. 2b.

Row | Molecule | amount of CJAS1 transcript [1] | CJAS1 transcript accumulation [2] | also measured
1 | [Cl][Cu][Cl] [Cu, copper chloride] | further increased |  | 
2 | CC1=CC(=O)CC(C)(C)C1(O)/C=C/C(C)=C\C(=O)O (stereo not drawn) [ABA] | further increased |  | 
3 | C=C1[C@@H](O)[C@@H]2O[C@]3(CC[C@H](/C=C/[C@@H](C)[C@@H]4CC(C)=C[C@@]5(O[C@H](C[C@@](C)(O)C(=O)O)CC[C@H]5O)O4)O3)CC[C@H]2O[C@@H]1[C@@H](O)C[C@H](C)[C@H]1O[C@@]2(CCCCO2)CC[C@H]1C [OKA, okadaic acid] |  | increased | 
4 | CC1(C)N([O])C(c2ccccc2)=[N+]([O-])C1(C)C [PTIO, 2-phenyl-4,4,5,5-tetramethylimidazolinone-3-oxide-1-oxyl] |  | increased | 
5 | CC/C=C\CC1C(=O)CCC1CC(=O)OC (stereo not drawn) [MeJA] | further increased |  | 
6 | CN[C@@H]1C[C@H]2O[C@@](C)([C@@H]1OC)n1c3ccccc3c3c4c(c5c6ccccc6n2c5c31)C(=O)NC4 [STAU, staurosporine] |  | increased | interaction with MeJA in induction of CJAS1 expression ([2]; with MeJA): acted synergistically
7 | O=C(O)c1ccccc1O [SA] | further increased |  | 
8 | C[C@@H]1C[C@@H]([C@H](O)CC2CC(=O)NC(=O)C2)C(=O)[C@@H](C)C1 [cycloheximide] |  | increased | 
9 | B1 |  |  | complementation of GMP synthetase mutant [3]: no complementation was observed; transformants producing a lighter-colored (yellow) seed ([4]; CJAS1 cDNA antisense): over 50%; seed coat color of transformed plants ([4]; antisense orientation, 35S promoter, B. carinata): yellow-colored seed coats
